Where a SMILES comes first, the peptide text is derived from it. The star is where a group is joined. Biotin = O=C1N[C@H]2[C@H](CS[C@H]2CCCCC(=O)*)N1
How the values were obtained:
AR LBD [1] = target: T1, AR LBD (Pan troglodytes, UniProt O97775); assay: FRET-based assay of interaction between synthetic peptide and purified AR LBD; format: binding, chimp (100% identity to the human form in protein sequence); settings: in vitro; excitation 320 nm, emission 625 and 665 nm; streptavidin-cryptate / streptavidin-XL665; unpublished data
T1 construct: chimp AR LBD (residues 663–919—human numbering); GST (N, cleaved yes); made in house; host or cells: E. coli BL21 (DE3) STAR
T1 sequence (O97775 655-911 limits assumed): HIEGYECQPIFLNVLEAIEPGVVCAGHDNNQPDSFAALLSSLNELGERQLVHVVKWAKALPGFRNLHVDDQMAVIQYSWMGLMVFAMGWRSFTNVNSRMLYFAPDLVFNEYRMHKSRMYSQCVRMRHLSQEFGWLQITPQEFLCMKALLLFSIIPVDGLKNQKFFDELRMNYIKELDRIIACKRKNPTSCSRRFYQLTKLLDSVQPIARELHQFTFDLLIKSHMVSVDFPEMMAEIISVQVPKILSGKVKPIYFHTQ
Experimental: Synthetic peptides corresponding to the deduced amino acid sequences from receptor-specific phage were tested for their ability to interact with purified AR LBD using a FRET–based assay format. […] Flourophor conjugates were prepared by incubating either biotinylated peptides with streptavidin-cryptate (Cis Bio International, Bagnols Sur Ceze Cedex, France), or biotinylated AR LBD with streptavidin-XL665 (Cis Bio). Interaction between peptide and AR LBD was monitored by the ratio of energy transfer by excitation at 320 nm and emission at 625 nm and 665 nm.

AR LBD [2] = target: T1, AR LBD; assay: Surface plasmon resonance (Biacore 2000), peptide binding to AR LBD; format: chimp (100% identity to the human form in protein sequence); settings: for ka1 × 10^-4: association rate, biotinylated peptide immobilised (approx. 250 RU), AR LBD 10, 5, 1 μM and 300 nM, SMRT2 signal subtracted, values are ka1 multiplied by 10^-4; for ka1 × 10^-4 / kd1 × 10^2: step 1 of two-state conformational change model; for ka1 × 10^-4 / Kd2 / kd1 × 10^2 / ka2 × 10^3 / kd2 × 10^3: HBS-P pH 7.4; for Kd2: dissociation constant of step 2, calculated from rate constants, two-state conformational change model; for kd1 × 10^2: dissociation rate, values are kd1 multiplied by 10^2; for ka2 × 10^3: forward rate, values are ka2 multiplied by 10^3; for ka2 × 10^3 / kd2 × 10^3: step 2 of two-state conformational change model; for kd2 × 10^3: reverse rate, values are kd2 multiplied by 10^3
Experimental: (§1) Expression and purification of the AR LBD for crystallization were performed essentially as described ([Matias et al. 2000]). […] Induction was carried out with 30 μM IPTG at 17 °C for 16–18 h. E. coli cells were lysed in buffer (10 mM Tris, [pH 8.0], 150 mM NaCl, 10% glycerol, 1 mM TCEP, 0.2 mM PMSF) supplemented with 0.5 μg/ml lysozyme, 5 U/ml benzonase, 0.5% CHAPS, and 10 μM DHT. All buffers for further purification steps contained 1 μM DHT. Soluble cell lysate was adsorbed to Glutathione Sepharose 4 Fast Flow resin (Amersham Biosciences), washed with buffer containing 0.1% n-octyl β-glucoside, and eluted with 15 mM glutathione. After cleavage of the GST moiety with thrombin, final purification of the AR LBD was carried out using a HiTrap SP cation exchange column (Amersham Biosciences). Eluted AR LBD was dialyzed overnight at 4 °C against buffer containing 50 mM HEPES (pH 7.2), 10% glycerol, 0.2 mM TCEP, 20 μM DHT, 150 mM Li2SO4, and 0.1% n-octyl β-glucoside, then concentrated to greater than 4 mg/ml for crystallization.
Affinities of peptides to the AR LBD were determined with a Biacore (Piscataway, New Jersey, United States) 2000 instrument. A peptide derived from silencing mediator for RXR and TR 2 (SMRT2) served as a negative control. 1 mM peptide stock solutions in DMSO were diluted into HBS-P buffer (10 mM HEPES [pH 7.4], 150 mM NaCl, 0.005% Surfactant P20) to generate 10 μM working solutions. HBS-P buffer was flowed through the cells to achieve a stable baseline prior to immobilization of the biotinylated peptides. To achieve the binding of approximately 250 RU of peptides to individual cells, working solutions of peptides were diluted to 100 nM in HBS-P buffer. Unbound streptavidin sites were blocked by injection of a 1 mM biotin solution at a rate of 10 μl/min.
Purified AR LBD was diluted into HBS-P buffer to a concentration of 10 μM and injected into all four Flowcells using the Kinject protocol at a flow rate of 10 μl/min (contact time 360 s, dissociation time 360 s). Following the dissociation phase, the surface of the chip was regenerated to remove residual AR LBD by QuickInject of buffer containing 10 mM HEPES and 50% ethylene glycol (pH 11). Following the establishment of a stable baseline, the same procedure was repeated using a series of AR LBD dilutions (5 μM, 1 μM, and 300 nM) in an iterative manner. Analysis of the data was performed using BIAevaluation 3.0 software (Biacore). The SMRT2 signals were subtracted as background from the three remaining peptide signals. Data were best fit using the two-state conformational change model ([Warnmark et al. 2001], [2002]).

AR LBD [3] = target: T1, AR LBD; assay: X-ray crystal structures of AR LBD-peptide complexes, buried surface area; format: chimp (100% identity to the human form in protein sequence); settings: calculated with CNS from crystal structure; for Buried surface area, +1: +1 residue; for Buried surface area, +1 / Buried surface area, +4 / Buried surface area, +5: side chain atoms only; for Buried surface area, +4: +4 residue; for Buried surface area, +5: +5 residue; for Buried surface area, Total: AR LBD-peptide complex, DHT-bound
Experimental: as §1
Purified, concentrated AR LBD was combined with 3x to 6x molar excess of peptide and incubated 1 h at room temperature before crystallization trials. Complexes were crystallized using the hanging drop vapor diffusion method. Protein–peptide solution was combined in a 1:1 ratio with a well solution consisting of 0.6–0.8 M sodium citrate and 100 mM Tris or HEPES buffer (pH 7–8). Crystals typically appeared after 1–2 d, with maximal size attained within 2 wk. For data collection, crystals were swiped into a cryo-protectant solution consisting of well solution plus 10% glycerol before flash freezing in liquid nitrogen. The addition of ethylene glycol to a well concentration of 10%–20% was later found to both improve crystal quality and enable the freezing of crystals directly out of the drop.
Datasets were collected at 100K at the Advanced Light Source (Lawrence Berkeley Laboratory, Berkeley, California, United States), beamline 8.3.1, with either a ADSC Quantum 315 or Quantum 210 CCD detector. Data were processed using Denzo and Scalepack ([Otwinowski and Minor 1997]). Molecular replacement searches were performed with rotation and translation functions from CNS ([Brunger et al. 1998]). Initial searches for AR–FxxLF were performed using the structure of AR–R1881 (PDB: 1E3G) with R1881 omitted from the search model. Subsequent searches for all other complexes were performed using the refined LBD structure from the AR–FxxLF complex. To minimize the possibility of model bias, FxxLF peptide and DHT were omitted from all molecular replacement searches. Protein models were built by iterative rounds of simulated annealing, conjugate gradient minimization, and individual B-factor refinement in CNS followed by manual rebuilding in Quanta 2000 (Accelrys, San Diego, California, United States) using σA-weighted 2F o − F c, F o − F c, and simulated annealing composite omit maps. Superposition of structures was performed with LSQMAN ([Kleywegt 1996]). Buried surface area calculations were performed with CNS. All figures were generated with PyMOL ([DeLano 2002]). Coordinates and structure factors for all complexes have been deposited in the Protein Data Bank.

Row | affinity for AR (AR LBD [2]) | fold weaker affinity than FxxLF (AR LBD [2]; Kd ratio relative to FxxLF) | ka1 × 10^-4 (AR LBD [2]) [M^-2s^-1] | affinity relative to tightest binding p160-derived LxxLL motif, NR box 3 of TIF2 (AR LBD [2]; compared with earlier value for TIF2 NR box 3 (He and Wilson 2003)) | Kd2 (AR LBD [2]) | kd1 × 10^2 (AR LBD [2]) [M^-1s^-1] | ka2 × 10^3 (AR LBD [2]) [M^--1s^-1] | kd2 × 10^3 (AR LBD [2]) [M^-1s^-1] | Buried surface area, +1 (AR LBD [3]) [Å^2] | Buried surface area, +4 (AR LBD [3]) [Å^2] | Buried surface area, +5 (AR LBD [3]) [Å^2] | Buried surface area, Total (AR LBD [3]) [Å^2] | affinity relative to FxxLF (AR LBD [2]; comparison with FxxLF) | Compound | binding to AR in FRET-based screens (AR LBD [1])
1 | moderate affinity | less than 2 -fold | 6.2±4.3 | more than three times stronger | 1.6±0.2 | 7.0±0.17 | 3.2±0.4 | 5.0±0.04 | 271 | 193 | 241 | 984 |  | CC(C)C[C@H](NC(=O)CNC(=O)[C@H](CCCNC(=N)N)NC(=O)[C@H](CO)NC(=O)[C@@H](N)CO)C(=O)N[C@@H](CC(C)C)C(=O)N[C@@H](Cc1c[nH]c2ccccc12)C(=O)N[C@@H](CC(=O)O)C(=O)N[C@@H](CC(C)C)C(=O)N[C@@H](CC(C)C)C(=O)N[C@H](C(=O)N[C@@H](CCCCN)C(=O)N[C@@H](CC(=O)O)C(=O)N[C@@H](CO)C(=O)N[C@@H](CCCNC(=N)N)C(=O)N[C@@H](CO)C(=O)NCC(=O)N[C@@H](CO)C(=O)NCC(=O)N[C@@H](CCCCNC(=O)CCCC[C@@H]1SC[C@@H]2NC(=O)N[C@@H]21)C(=O)O)[C@@H](C)O [LxxLL] (H-SSRGLLWDLLTKDSRSGSGK(Biotin)-OH; N-terminus and C-terminus assumed) | demonstrated to bind AR in FRET-based screens in vitro
2 |  |  | 5.2±1.0 |  | 2.6±1.0 | 2.3±0.03 | 1.3±0.5 | 3.5±0.06 | 305 | 189 | 276 | 1012 |  | CC(C)C[C@H](NC(=O)[C@H](CO)NC(=O)[C@H](CCC(=O)O)NC(=O)[C@H](Cc1ccccc1)NC(=O)[C@H](CCCNC(=N)N)NC(=O)[C@H](CO)NC(=O)[C@@H](N)CO)C(=O)N[C@@H](Cc1ccccc1)C(=O)N[C@@H](C)C(=O)NCC(=O)N[C@@H](CCC(=O)O)C(=O)N[C@@H](CCCCN)C(=O)N[C@@H](CCC(=O)O)C(=O)N[C@@H](CO)C(=O)N[C@@H](CCCNC(=N)N)C(=O)N[C@@H](CO)C(=O)NCC(=O)N[C@@H](CO)C(=O)NCC(=O)N[C@@H](CCCCNC(=O)CCCC[C@@H]1SC[C@@H]2NC(=O)N[C@@H]21)C(=O)O [FxxLF] (H-SSRFESLFAGEKESRSGSGK(Biotin)-OH; N-terminus and C-terminus assumed) | 
3 |  |  | 5.9±1.5 |  | 1.6±0.2 | 3.4±0.04 | 3.6±0.3 | 5.6±0.05 | 315 | 187 | 313 | 937 | slightly better than FxxLF | CC(C)C[C@H](NC(=O)[C@H](C)NC(=O)[C@H](C)NC(=O)[C@H](Cc1ccccc1)NC(=O)[C@H](CCCCN)NC(=O)[C@H](CO)NC(=O)[C@@H](N)CO)C(=O)N[C@@H](Cc1c[nH]c2ccccc12)C(=O)N[C@@H](CC(=O)O)C(=O)N1CCC[C@H]1C(=O)N1CCC[C@H]1C(=O)N[C@@H](CCCCN)C(=O)N[C@@H](CC(C)C)C(=O)N[C@@H](CO)C(=O)N[C@@H](CCCNC(=N)N)C(=O)N[C@@H](CO)C(=O)NCC(=O)N[C@@H](CO)C(=O)NCC(=O)N[C@@H](CCCCNC(=O)CCCC[C@@H]1SC[C@@H]2NC(=O)N[C@@H]21)C(=O)O [FxxLW] (H-SSKFAALWDPPKLSRSGSGK(Biotin)-OH; N-terminus and C-terminus assumed) | 
